Laboratory results taken from patent publication US20260008760A1, “DIPEPTIDYL PEPTIDASE 1 INHIBITORS AND USES THEREOF” (Insmed Incorporated, priority 2024, published 2026).

What was measured:
human DPP1 enzyme = human DPP1 enzyme (Homo sapiens, UniProt P53634); assay: Human DPP1 Enzyme Single-Point Percent Inhibition Testing (HL-60 lysate); type: biochemical; design: A crude lysate of HL-60 cells (ATCC; Manassas, VA) was used as a source of human DPP1 enzyme; host or cells: HL-60 cells (crude lysate); conditions: final compound concentration of 10 nM, 400 μM H-Gly-Arg-AMC, n = 1
Procedure: Example 98. Human DPP1 Enzyme Single-Point Percent Inhibition Testing
A crude lysate of HL-60 cells (ATCC; Manassas, VA) was used as a source of human DPP1 enzyme in the assay. Lysate was prepared in 1% Triton X-100 in PBS at a concentration of 20,000 live cells per μL of lysis buffer and was centrifuged at 16,000 rcf for 10 minutes at 4° C., after which supernatant was collected and flash-frozen in liquid nitrogen. Test articles were applied to human DPP1 enzyme in Assay Buffer (25 mM MES pH 6.0, 50 mM NaCl, 5 mM DTT) in a total reaction volume of 125 μL. 25 μL of compound diluted to 50 nM in Assay Buffer plus 5% DMSO was first added to 50 μL of HL-60 lysate diluted to contain a DPP1 enzyme concentration of roughly 1 ng/μL and allowed to pre-incubate for 10 minutes at 37° C. after which 50 μL of 1000 μM H-Gly-Arg-AMC substrate (Bachem; St. Torrance, CA) was added, giving final compound concentration of 10 nM, a final substrate concentration of 400 μM and a final DMSO concentration of 1%. Substrate cleavage was measured for 90 minutes at 37° C., with fluorescence at Excitation/Emission 350/450 nm measured every 5 minutes. DPP1 concentration was interpolated based on its activity relative to a standard curve of activated human recombinant DPP1 enzyme. Percent inhibition at 10 nM was calculated for each test article based on remaining DPP1 activity compared to enzyme activity in wells that received only vehicle control.

DPP1 in HL-60 cells = DPP1 in HL-60 cells (Homo sapiens, UniProt P53634); assay: DPP1 Cell Single-Point Percent Inhibition Testing; type: cell-based; design: host or cells: HL-60 cells; conditions: final compound concentration 5 nM, n = 1
Procedure: Example 100. DPP1 Cell Single-Point Percent Inhibition Testing
HL-60 cells (ATCC; Manassas, VA) were maintained in RPMI-1640 supplemented with 20% heat-inactivated FBS and 1× Antibiotic Antimycotic (Cytiva; Marlborough, MA). Media was changed every three to four days and cells were not allowed to exceed 1×10^6 cells per mL. Prior to assay, cells were collected by centrifugation at 500 rcf for 3 minutes, resuspended in RPMI (with no additional supplements) and counted. Cells were diluted in RPMI to a concentration of 5×10^5 live cells per mL and transferred to black 96-well plates for assay, 60 μL per well. Test articles were diluted to 25 nM in RPMI plus 0.5% DMSO, and 20 μL was added to each assay well. Compound was allowed to pre-incubate with cells with gentle shaking at 100 rpm for 60 minutes at 37° C. in a cell culture incubator maintained at 5% CO2, after which 20 μL of 500 μM H-Gly-Phe-AFC cell-permeable substrate (MP Biomedicals; Solon, OH) in RPMI was added to each well, giving final compound concentration of 5 nM, a final substrate concentration of 100 μM and a final DMSO concentration of 0.1%. Plates were returned to the incubator with shaking at 100 rpm for 30 minutes, after which fluorescence was measured at Excitation/Emission 400/505 nm. Percent Inhibition was calculated from RFU values by first subtracting background values (wells in which RPMI was substituted for cells) from each well, and then subtracting background-subtracted RFU derived from wells that received a final concentration of 10 μM brensocatib. This value represents the non-specific substrate cleavage from the HL-60 cells, and the remaining RFU should theoretically be solely the contribution of DPP1 enzyme activity. The final percent inhibition value was calculated for each test article based on remaining RFU compared to RFU from wells that received only vehicle control.

Chain of DPP1 in HL-60 cells (P53634 25-463): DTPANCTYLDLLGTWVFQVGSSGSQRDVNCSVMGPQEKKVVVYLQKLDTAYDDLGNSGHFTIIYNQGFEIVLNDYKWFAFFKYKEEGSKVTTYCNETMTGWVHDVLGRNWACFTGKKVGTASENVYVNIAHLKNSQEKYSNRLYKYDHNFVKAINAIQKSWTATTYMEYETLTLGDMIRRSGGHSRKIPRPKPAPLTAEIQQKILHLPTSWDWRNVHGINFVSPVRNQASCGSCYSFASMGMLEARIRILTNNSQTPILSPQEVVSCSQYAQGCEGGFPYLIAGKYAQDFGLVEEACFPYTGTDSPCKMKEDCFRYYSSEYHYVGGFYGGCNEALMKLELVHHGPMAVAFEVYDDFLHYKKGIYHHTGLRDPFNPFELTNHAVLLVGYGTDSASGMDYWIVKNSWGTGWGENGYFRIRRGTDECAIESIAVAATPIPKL
Chain of human DPP1 enzyme (P53634 25-463): as above

SMILES | inhibition at 0.01 µM (human DPP1 enzyme) [%] | inhibition at 0.005 µM (DPP1 in HL-60 cells) [%]
CO[C@H]1CCO[C@H](C(=O)N[C@H](C#N)Cc2ccc(-c3ccc4c(n3)CCCN4)cc2)CNC1 [Compound A93] | ≤ 40 | ≤ 76.5
CO[C@H]1CCO[C@H](C(=O)N[C@H](C#N)Cc2ccc(-c3cc4c(C)nc(C)cn4c3)cc2F)CNC1 [Compound A94] | ≤ 40 | ≤ 76.5
CO[C@H]1CCO[C@H](C(=O)N[C@H](C#N)Cc2ccc(-c3ccc4c(n3)CCCN4)cc2F)CNC1 [Compound A95] | 40 to 66.7 | ≤ 76.5
CO[C@H]1CCO[C@H](C(=O)N[C@H](C#N)Cc2ccc(-c3cnc4c(n3)CCCC4)cc2)CNC1 [Compound A96] | 40 to 66.7 | ≤ 76.5
CO[C@H]1CCO[C@H](C(=O)N[C@H](C#N)Cc2ccc(-c3cnc4c(n3)CCCC4)cc2F)CNC1 [Compound A97] | 40 to 66.7 | ≤ 76.5
Cc1cn2cc(-c3ccc(C[C@@H](C#N)NC(=O)[C@@H]4CN[C@@H](C)[C@H](O)CO4)cc3)cc2c(C)n1 [Compound A98] | ≥ 66.7 | ≤ 76.5
C[C@@H]1NC[C@@H](C(=O)N[C@H](C#N)Cc2ccc(-c3ccc4c(n3)CCCN4)cc2F)OC[C@H]1O [Compound A101] | ≥ 66.7 | 76.5 to 93.9
Cc1cn2cc(-c3ccc(C[C@@H](C#N)NC(=O)[C@@H]4CN[C@@H](C)[C@@H](O)CO4)cc3)cc2c(C)n1 [Compound A104] | ≤ 40 | ≤ 76.5
Cc1cn2cc(-c3ccc(C[C@@H](C#N)NC(=O)[C@@H]4CN[C@@H](C)[C@@H](O)CO4)c(F)c3)cc2c(C)n1 [Compound A106] | ≤ 40 | ≤ 76.5
C[C@@H]1NC[C@@H](C(=O)N[C@H](C#N)Cc2ccc(-c3ccc4c(n3)CCCN4)cc2F)OC[C@@H]1O [Compound A107] | ≤ 40 | ≤ 76.5
C[C@@H]1NC[C@@H](C(=O)N[C@H](C#N)Cc2ccc(-c3cnc4c(n3)CCCC4)cc2)OC[C@@H]1O [Compound A108] | ≤ 40 | ≤ 76.5
N#C[C@H](Cc1ccc(-c2ccc3c(n2)CCCN3)cc1)NC(=O)[C@@H]1CNCCCCO1 [Compound A111] | ≤ 40 | ≤ 76.5
N#C[C@H](Cc1ccc(-c2cnc3c(n2)CCCC3)cc1)NC(=O)[C@@H]1CNCCCCO1 [Compound A114] | ≤ 40 | ≤ 76.5
N#C[C@H](Cc1ccc(-c2cnc3c(n2)CCCC3)cc1F)NC(=O)[C@@H]1CNCCCCO1 [Compound A115] | ≤ 40 | ≤ 76.5
Cc1cn2cc(-c3ccc(C[C@@H](C#N)NC(=O)[C@@H]4CNCCCO4)cc3)cc2c(C)n1 [Compound A116] | ≤ 40 | ≤ 76.5
N#C[C@H](Cc1ccc(-c2ccc3c(n2)CCCN3)cc1)NC(=O)[C@@H]1CNCCCO1 [Compound A117] | ≤ 40 | ≤ 76.5
Cc1cn2cc(-c3ccc(C[C@@H](C#N)NC(=O)[C@@H]4CNCCCO4)c(F)c3)cc2c(C)n1 [Compound A118] | ≤ 40 | ≤ 76.5

SMILES | inhibition at 0.01 µM (human DPP1 enzyme) [%] | inhibition at 0.005 µM (DPP1 in HL-60 cells) [%]
N#C[C@H](Cc1ccc(-c2ccc3c(n2)CCCN3)cc1F)NC(=O)[C@@H]1CNCCCO1 [Compound A119] | ≤ 40 | ≤ 76.5
N#C[C@H](Cc1ccc(-c2cnc3c(n2)CCCC3)cc1F)NC(=O)[C@@H]1CNCCCO1 [Compound A120] | ≤ 40 | ≤ 76.5
CO[C@@H]1CCNC[C@@H](C(=O)N[C@H](C#N)Cc2ccc(-c3cc4c(C)ncc(C)n4c3)cc2)OC1 [Compound A122] | ≥ 66.7 | 76.5 to 93.9
CO[C@@H]1CCNC[C@@H](C(=O)N[C@H](C#N)Cc2ccc(-c3cc4c(C)nc(C)c(C)n4c3)cc2)OC1 [Compound A123] | ≥ 66.7 | ≥ 93.9
COC1CNC[C@@H](C(=O)N[C@H](C#N)Cc2ccc(-c3cc4c(C)ncc(C)n4c3)cc2)OC1 (some centres unmarked) [Compound A125] | ≥ 66.7 | ≥ 93.9
COC1CNC[C@@H](C(=O)N[C@H](C#N)Cc2ccc(-c3cc4c(C)nc(C)c(C)n4c3)cc2)OC1 (some centres unmarked) [Compound A126] | ≥ 66.7 | ≥ 93.9
CO[C@H]1CCO[C@H](C(=O)N[C@H](C#N)Cc2ccc(-c3cc4c(C)ncc(C)n4c3)cc2)CNC1 [Compound A128] | 40 to 66.7 | 76.5 to 93.9
CO[C@H]1CCO[C@H](C(=O)N[C@H](C#N)Cc2ccc(-c3cc4c(C)nc(C)c(C)n4c3)cc2)CNC1 [Compound A129] | 40 to 66.7 | 76.5 to 93.9
Cc1ncc(C)n2cc(-c3ccc(C[C@@H](C#N)NC(=O)[C@@H]4CN[C@@H](C)[C@H](O)CO4)cc3)cc12 [Compound A131] | ≥ 66.7 | ≤ 76.5
Cc1nc(C)c2cc(-c3ccc(C[C@@H](C#N)NC(=O)[C@@H]4CN[C@@H](C)[C@H](O)CO4)cc3)cn2c1C [Compound A132] | ≥ 66.7 | 76.5 to 93.9
Cc1ncc(C)n2cc(-c3ccc(C[C@@H](C#N)NC(=O)[C@@H]4CN[C@@H](C)[C@@H](O)CO4)cc3)cc12 [Compound A134] | 40 to 66.7 | ≤ 76.5
Cc1nc(C)c2cc(-c3ccc(C[C@@H](C#N)NC(=O)[C@@H]4CN[C@@H](C)[C@@H](O)CO4)cc3)cn2c1C [Compound A135] | ≤ 40 | ≤ 76.5
Cc1ncc(C)n2cc(-c3ccc(C[C@@H](C#N)NC(=O)[C@@H]4CNCCCO4)cc3)cc12 [Compound A140] | ≤ 40 | 76.5 to 93.9
Cc1nc(C)c2cc(-c3ccc(C[C@@H](C#N)NC(=O)[C@@H]4CNCCCO4)cc3)cn2c1C [Compound A141] | ≤ 40 | 76.5 to 93.9
CN1CCC(n2ncc3ccc(-c4ccc(C[C@@H](C#N)NC(=O)[C@@H]5CNCCCO5)c(F)c4)cc32)CC1 [Compound A144] | 40 to 66.7 | ≤ 76.5
CO[C@@H]1CCNC[C@@H](C(=O)N[C@H](C#N)Cc2cc3c(cc2F)-c2ccc(C#N)cc2CO3)OC1 [Compound B20] | ≥ 66.7 | ≥ 93.9
CO[C@@H]1CCNC[C@@H](C(=O)NC(C#N)Cc2cc3c(cc2F)-c2cc(C#N)ccc2CO3)OC1 (some centres unmarked) [Compound B21] | ≥ 66.7 | 76.5 to 93.9
